Structures are written as SMILES. pEC50, pIC50: −log10 of the molar value. Like-named read-outs stand apart in the source and are kept apart here. Where only a bound is given, the exact number is not on record here.

For one experiment, the target named is SARS-CoV2 Mpro (Severe acute respiratory syndrome coronavirus 2 (2019-nCoV) (SARS-CoV-2), UniProt P0DTD1). The experiment in a line: COVID-19 (SARS-CoV2) Mpro enzymatic assay. In kind it is biochemical. Particulars: 25 nM Mpro, 25 μM substrate.
A further experiment deals with 229E Mpro (Human coronavirus 229E (HCoV-229E), UniProt P0C6X1). The experiment in a line: 229E Mpro activity. It counts as biochemical.
229E Mpro, sequence (P0C6X1 2966-3267 limits assumed): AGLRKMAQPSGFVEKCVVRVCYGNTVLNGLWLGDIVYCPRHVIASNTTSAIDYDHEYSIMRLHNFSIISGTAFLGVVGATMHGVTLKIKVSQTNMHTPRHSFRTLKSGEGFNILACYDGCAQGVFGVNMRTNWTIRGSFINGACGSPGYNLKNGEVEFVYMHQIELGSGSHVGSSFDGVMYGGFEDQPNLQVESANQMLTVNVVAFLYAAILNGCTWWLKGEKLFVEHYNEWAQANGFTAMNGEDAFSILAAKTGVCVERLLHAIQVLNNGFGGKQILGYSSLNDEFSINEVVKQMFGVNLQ

Experimental for 229E Mpro: Compounds are assayed using standard methods to assess compound activity and IC50. […] The assay buffer contains 20 mM of Tris-HCl (pH 7.3), 100 mM of NaCl, 1 mM of EDTA, 5mM of TCEP and 0.1% BSA.

The molecule `COc1cccc2[nH]c(C(=O)N3Cc4ccccc4C3C(=O)N[C@H](C#N)C[C@@H]3CCNC3=O)cc12` (single isomer, unassigned) [429A (Isomer 1)] gave a pIC50 on SARS-CoV2 Mpro of 4.52 to 5.00. For the same molecule, the pEC50 at 229E Mpro (read-out: 229E Mpro EC50) is less than 4.52.
On the same counts, the results for `COc1cccc2[nH]c(C(=O)N3Cc4ccccc4C3C(=O)N[C@H](C#N)C[C@@H]3CCNC3=O)cc12` (single isomer, unassigned) [429A (Isomer 2)] are less than 4.52 and less than 4.52.
For the molecule `CC(C)(C)OC(=O)N1CCCCC12CCN(C(CC1CC1)C(=O)N[C@H](C#N)C[C@@H]1CCNC1=O)C2=O` (single isomer, unassigned) [473 (Isomer 1)], the pIC50 against SARS-CoV2 Mpro was less than 4.52. The negative-log EC50 (pEC50) on 229E Mpro (read-out: 229E Mpro EC50) is less than 4.52.
With `COc1cccc2[nH]c(C(=O)N[C@@H](CC3CC3)C(=O)N[C@@]3(C#N)C[C@@H]4CC[C@H]3[C@@H]3C(=O)NC(=O)[C@H]43)cc12` (single isomer, unassigned) [489 (Isomer 2)], at SARS-CoV2 Mpro, the pIC50 is less than 4.52. Moreover, at 229E Mpro (read-out: 229E Mpro EC50), the pEC50 is less than 4.52.
Consider `N#C[C@@]1(NC(=O)[C@H](CC2CC2)NC(=O)OCc2ccccc2)C[C@@H]2CC[C@H]1[C@@H]1C(=O)NC(=O)[C@H]21` (single isomer, unassigned) [495 (Isomer 2)], for which the pIC50 against SARS-CoV2 Mpro was less than 4.52. Further, the negative logarithm of the EC50 (pEC50) at 229E Mpro (read-out: 229E Mpro EC50) is less than 4.52.
For the molecule `COc1cccc2[nH]c(C(=O)N3CC4(CCC4)CC3C(=O)N[C@H](C#N)C[C@@H]3CCCNC3=O)cc12` (single isomer, unassigned) [719A (Isomer 1)], the pIC50 at SARS-CoV2 Mpro is 4.52 to 5.00. The pEC50 on 229E Mpro (read-out: 229E Mpro EC50) is 4.52 to 5.00.
In the case of `N#C[C@H](C[C@@H]1CCCNC1=O)NC(=O)C1CC2(CCCCC2)CN1C(=O)c1cc2cccc(Cl)c2[nH]1` (single isomer, unassigned) [731 (Isomer 2)], the negative logarithm of the IC50 (pIC50) against SARS-CoV2 Mpro is 5.00 to 5.70. In addition, on 229E Mpro (read-out: 229E Mpro EC50), the negative-log EC50 (pEC50) is 4.52 to 5.00.
On the same counts, the results for `N#C[C@H](C[C@@H]1CCCNC1=O)NC(=O)C1CC2(CCCCC2)CN1C(=O)c1cc2ccc(Cl)cc2[nH]1` (single isomer, unassigned) [733 (Isomer 2)] are 5.00 to 5.70 and 5.00 to 5.70.
Molecule `N#C[C@H](C[C@@H]1CCCNC1=O)NC(=O)C1CC2(CN1C(=O)c1cc3cccc(Cl)c3[nH]1)CC(F)(F)C2` (single isomer, unassigned) [743 (Isomer 1)] gave a negative-log IC50 (pIC50) against SARS-CoV2 Mpro of less than 4.52. The pEC50 on 229E Mpro (229E Mpro EC50) is less than 4.52.
As to `N#C[C@H](C[C@@H]1CCCNC1=O)NC(=O)C1CC2(CN1C(=O)c1cc3cccc(Cl)c3[nH]1)CC(F)(F)C2` (single isomer, unassigned) [743 (Isomer 2)], the pIC50 on SARS-CoV2 Mpro was more than 5.70. On 229E Mpro (read-out: 229E Mpro EC50), the negative logarithm of the EC50 (pEC50) was more than 5.70.
On SARS-CoV2 Mpro, `N#C[C@H](C[C@@H]1CCCNC1=O)NC(=O)C1CC2(CCC2)CN1C(=O)c1cc2ccc(Cl)cc2[nH]1` (single isomer, unassigned) [791 (Isomer 1)] gave a pIC50 of less than 4.52. The negative logarithm of the EC50 (pEC50) on 229E Mpro (read-out: 229E Mpro EC50) is less than 4.52.
Molecule `N#C[C@H](C[C@@H]1CCCNC1=O)NC(=O)C1CC2(CCC2)CN1C(=O)c1cc2ccc(Cl)cc2[nH]1` (single isomer, unassigned) [791 (Isomer 2)] showed a pIC50 at SARS-CoV2 Mpro of more than 5.70. Moreover, the negative-log EC50 (pEC50) at 229E Mpro (read-out: 229E Mpro EC50) is more than 5.70.
On SARS-CoV2 Mpro, `N#C[C@H](C[C@@H]1CCCNC1=O)NC(=O)C1CC2(CCCCC2)CN1C(=O)c1cc2c(Cl)cccc2[nH]1` (single isomer, unassigned) [801 (Isomer 1)] had a negative-log IC50 (pIC50) of more than 5.70. The pEC50 at 229E Mpro (read-out: 229E Mpro EC50) is more than 5.70.
In turn, `N#C[C@H](C[C@@H]1CCCNC1=O)NC(=O)C1CC2(CCCCC2)CN1C(=O)c1cc2c(Cl)cccc2[nH]1` (single isomer, unassigned) [801 (Isomer 2)] gave a negative-log IC50 (pIC50) at SARS-CoV2 Mpro of 4.52 to 5.00. Also, on 229E Mpro (read-out: 229E Mpro EC50), the pEC50 is 4.52 to 5.00.
`N#C[C@H](C[C@@H]1CCCNC1=O)NC(=O)C1CC2(CCC2)CN1C(=O)c1cc2c(Cl)cccc2[nH]1` (single isomer, unassigned) [803 (Isomer 1)] showed a pIC50 against SARS-CoV2 Mpro of less than 4.52. The negative logarithm of the EC50 (pEC50) on 229E Mpro (read-out: 229E Mpro EC50) is less than 4.52.
Consider `N#C[C@H](C[C@@H]1CCCNC1=O)NC(=O)C1CC2(CCC2)CN1C(=O)c1cc2c(Cl)cccc2[nH]1` (single isomer, unassigned) [803 (Isomer 2)], for which the pIC50 on SARS-CoV2 Mpro is less than 4.52. The pEC50 on 229E Mpro (read-out: 229E Mpro EC50) was less than 4.52.
For the molecule `N#C[C@H](C[C@@H]1CCCNC1=O)NC(=O)C1CC2(CCC2)CN1C(=O)c1cc2c(Cl)cccc2[nH]1` (single isomer, unassigned) [803 (Isomer 3)], the pIC50 at SARS-CoV2 Mpro is more than 5.70. Moreover, on 229E Mpro (read-out: 229E Mpro EC50), the negative logarithm of the EC50 (pEC50) was more than 5.70.
Molecule `N#C[C@H](C[C@@H]1CCCNC1=O)NC(=O)C1CC2(CCC2)CN1C(=O)c1cc2c(Cl)cccc2[nH]1` (single isomer, unassigned) [803 (Isomer 4)] showed a pIC50 against SARS-CoV2 Mpro of 5.00 to 5.70. Further, at 229E Mpro (read-out: 229E Mpro EC50), the pEC50 is more than 5.70.
On the same counts, the results for `N#C[C@H](C[C@@H]1CCCNC1=O)NC(=O)C1CC2(CCC(F)(F)CC2)CN1C(=O)c1cc2cccc(Cl)c2[nH]1` (single isomer, unassigned) [805 (Isomer 1)] are 4.52 to 5.00 and less than 4.52.
Taken in the same sequence, the figures for `N#C[C@H](C[C@@H]1CCCNC1=O)NC(=O)C1CC2(CCC(F)(F)CC2)CN1C(=O)c1cc2cccc(Cl)c2[nH]1` (single isomer, unassigned) [805 (Isomer 2)] were more than 5.70 and more than 5.70.
`CC1(C)CC(C[C@@H](C#N)NC(=O)[C@H](CC2CC2)NC(=O)c2cc3cccc(Cl)c3[nH]2)C(=O)N1` (single isomer, unassigned) [1053 (Isomer 4)] had a pIC50 on SARS-CoV2 Mpro of more than 5.70.
In the case of `N#C[C@H](C[C@@H]1CCCNC1=O)NC(=O)[C@H](CC1CC1)NC(=O)c1cc2c(C(F)(F)F)cccc2[nH]1` [Compound 856, N-((S)-1-(((S)-1-cyano-2-((S)-2-oxopiperidin-3-yl)ethyl)amino)-3-cyclopropyl-1-oxopropan-2-yl)-4-(trifluoromethyl)-1H-indole-2-carboxamide], the negative logarithm of the EC50 (pEC50) on 229E Mpro (read-out: 229E Mpro EC50) is more than 5.70.
Turning to `N#Cc1cccc2[nH]c(C(=O)N[C@@H](CC3CC3)C(=O)N[C@H](C#N)C[C@@H]3CCCNC3=O)cc12` [Compound 858], the negative-log EC50 (pEC50) at 229E Mpro (read-out: 229E Mpro EC50) is more than 5.70.
Still for that read-out and setting: then `N#Cc1ccc2[nH]c(C(=O)N[C@@H](CC3CC3)C(=O)N[C@H](C#N)C[C@@H]3CCCNC3=O)cc2c1` [Compound 860], with more than 5.70.
On the same count and under the same terms, for `N#Cc1ccc2cc(C(=O)N[C@@H](CC3CC3)C(=O)N[C@H](C#N)C[C@@H]3CCCNC3=O)[nH]c2c1` [Compound 862, 6-cyano-N-[(1S)-2-[[(1S)-1-cyano-2-[(3S)-2-oxo-3-piperidyl]ethyl]amino]-1-(cyclopropylmethyl)-2-oxo-ethyl]-1H-indole-2-carboxamide] the value was more than 5.70; for `N#C[C@H](C[C@@H]1CCCNC1=O)NC(=O)[C@H](CC1CC1)NC(=O)c1ccc(Cl)[nH]1` [Compound 864], more than 5.70; for `N#C[C@H](C[C@@H]1CCCNC1=O)NC(=O)[C@H](CC1CC1)NC(=O)c1cc(Cl)c(Cl)[nH]1` [Compound 866, 4,5-dichloro-N-[(1S)-2-[[(1S)-1-cyano-2-[(3S)-2-oxo-3-piperidyl]ethyl]amino]-1-(cyclopropylmethyl)-2-oxo-ethyl]-1H-pyrrole-2-carboxamide], more than 5.70.
On to `N#C[C@H](C[C@@H]1CCCNC1=O)NC(=O)[C@H](CC1CC1)NC(=O)c1ncc(Cl)[nH]1` [Compound 868], for which the negative logarithm of the EC50 (pEC50) at 229E Mpro (read-out: 229E Mpro EC50) was more than 5.70.
Same read-out and setting: then `COCCOCCOc1cccc2[nH]c(C(=O)N[C@@H](CC(C)(C)C)C(=O)N[C@H](C#N)C[C@@H]3CCCNC3=O)cc12` [Compound 876, N-[1-[[1-cyano-2-[(3S)-2-oxo-3-piperidyl]ethyl]carbamoyl]-3,3-dimethyl-butyl]-4-[2-(2-methoxyethoxy)ethoxy]-1H-indole-2-carboxamide], with more than 5.70; and `COc1ccc(Cl)c2[nH]c(C(=O)N[C@@H](CC(C)(C)C)C(=O)N[C@H](C#N)C[C@@H]3CCNC3=O)cc12` [Compound 892], with more than 5.70.
Same read-out and setting: then `COc1cc(Cl)c2[nH]c(C(=O)N[C@@H](CC(C)(C)C)C(=O)N[C@H](C#N)C[C@@H]3CCNC3=O)cc2c1` [Compound 894], with more than 5.70; and `COc1ccc(Cl)c2[nH]c(C(=O)N[C@@H](CC3CC3)C(=O)N[C@H](C#N)C[C@@H]3CCCNC3=O)cc12` [Compound 898, 7-chloro-N-[(1S)-2-[[(1S)-1-cyano-2-[(3S)-2-oxo-3-piperidyl]ethyl]amino]-1-(cyclopropylmethyl)-2-oxo-ethyl]-4-methoxy-1H-indole-2-carboxamide], with more than 5.70.
Still for that read-out and setting: for `COc1cc(Cl)c2[nH]c(C(=O)N[C@@H](CC3CC3)C(=O)N[C@H](C#N)C[C@@H]3CCCNC3=O)cc2c1` [Compound 900, 7-chloro-N-((S)-1-(((S)-1-cyano-2-((S)-2-oxopiperidin-3-yl)ethyl)amino)-3-cyclopropyl-1-oxopropan-2-yl)-5-methoxy-1H-indole-2-carboxamide] the value was more than 5.70.
Regarding `COc1cc(Cl)cc2[nH]c(C(=O)N[C@@H](CC3CC3)C(=O)N[C@H](C#N)C[C@@H]3CCCNC3=O)cc12` [Compound 906, 6-chloro-N-[(1S)-2-[[(1S)-1-cyano-2-[(3S)-2-oxo-3-piperidyl]ethyl]amino]-1-(cyclopropylmethyl)-2-oxo-ethyl]-4-methoxy-1H-indole-2-carboxamide], the pEC50 on 229E Mpro (read-out: 229E Mpro EC50) is more than 5.70.
As to `COc1cccc2[nH]c(C(=O)N[C@@H](CC3CC3)C(=O)N[C@H](C#N)C[C@H]3C(=O)Nc4ccccc43)cc12` [Compound 932], the negative logarithm of the EC50 (pEC50) on 229E Mpro (read-out: 229E Mpro EC50) was more than 5.70.
On the same count and under the same terms, for `COCCOCCOc1cccc2[nH]c(C(=O)N[C@@H](CC3CC3)C(=O)N[C@H](C#N)C[C@@H]3CCCNC3=O)cc12` [Compound 1057, N-[(1S)-2-[[(1S)-1-cyano-2-[(3S)-2-oxo-3-piperidyl]ethyl]amino]-1-(cyclopropylmethyl)-2-oxo-ethyl]-4-[2-(2-methoxyethoxy)ethoxy]-1H-indole-2-carboxamide] the value was more than 5.70.
On the same count and under the same terms, for `CN(C(=O)c1cc2cccc(Cl)c2[nH]1)[C@@H](CC1CC1)C(=O)N[C@H](C#N)C[C@@H]1CCCNC1=O` [Compound 1137] the value was 5.00 to 5.70; for `COc1cc(Cl)cc2[nH]c(C(=O)N[C@@H](CC(C)(C)C)C(=O)N[C@H](C#N)C[C@@H]3CCCNC3=O)cc12` [Compound 1149], more than 5.70.

For the origin of these results see patent US11524940B1, “Inhibitors of cysteine proteases and methods of use thereof” (priority 2020, dated 2022).
